{"source": "patent US20090326008A1", "about": "“NF-kappa B Inhibitor” (priority 2006, published 2009)", "tested_on": "IL-8", "test": "Relative IL-8 mRNA expression in IL-1β-stimulated MKN-45 cells (real-time PCR)", "assay_type": "cell-based, human", "conditions": "IL-1β-stimulated DMSO-treated cells = 100%, ACTB reference", "method": "RNA was extracted from the cells used in Example 2 according to the manufacturer's protocol for ABI Prism 6100 Nucleic Acid PrepStation (a nucleic acid isolation system, product of Applied Biosystems). More specifically, after removal of the culture supernatant and washing with 1 mL of PBS, 250 μL of Nucleic Acid Purification Lysis Solution (Part No. 4305895, Applied Biosystems) was added, and then agitated using a shaker for 2 to 3 minutes. The Lysis Solution containing the cell lysate was collected, and the total amount was transferred to the wells of RNA Purification Tray (Part No. 4305673, Applied Biosystems), which had been pre-wet with 40 μL of Nucleic Acid Purification Wash Solution I (Part No. 4305891, Applied Biosystems) beforehand. Aspiration (20% pressure) was performed for 2 minutes to adsorb the sample onto the RNA Purification Tray, followed by sequentially adding and aspirating (20% pressure, 2 min.) 500 μL of Wash Solution I, Nucleic Acid Purification (Part No. 4305891, Applied Biosystems), 400 μL of Wash Solution II, Nucleic Acid Purification (Part No. 4305890, product of Applied Biosystems), 400 μL of the Wash Solution II, and 300 μL of the Wash Solution II in that order. Aspiration (90% pressure) was performed for 5 minutes to remove the water content from the RNA Purification Trays. After addition of 150 μL of Elution Solution, Nucleic Acid Purification (Part No. 4305893, product of Applied Biosystems), aspiration (20% pressure) was performed for 2 minutes, while collecting the outflow. This was used as collected RNA solution.\nAbsorbance of the collected RNA solution at 260 nm was measured using a microplate spectrophotometer (“SpectraMax Plus”, product of Molecular Devices) with an analysis software (“SOFTmaxPRO ver.3.1.2”, product of Molecular Devices), and the RNA concentration was determined from the absorbance. Likewise, absorbance at 280 nm was measured and the purity of the RNA was determined using the analysis software.\ncDNA was synthesized according to the manufacturer's protocol for TaqMan® Reverse Transcription Reagents (Part No. N808-0234, product of Applied Biosystems). More specifically, about 0.5 μg of RNA, 2.5 μL of 10×RT buffer, 5.5 μL of MgCl2 solution, 5 μL of dNTP mixture, 1.25 μL of random hexamer (primers), 0.5 μL of RNase inhibitor, and 0.63 μL of MultiScribe Reverse Transcriptase (product of Applied Biosystems) were added to each collected RNA sample in a tube, and DEPC-treated water was added to make a total volume of 25 μL and stirred. A reaction consisting of 25° C. for 10 minutes, 48° C. for 30 minutes, and 95° C. for 5 minutes was performed using a PCR thermal cycler (“TaKaRa PCR Thermal Cycler Dice”, product of Takara Bio Inc.) to prepare a cDNA solution.\nPCR was performed according to the manufacturer's protocol for TaqMan® Gene Expression Assays (product of Applied Biosystems). More specifically, 5 μL of TaqMan® Fast Universal PCR Master Mix (product of Applied Biosystems), 0.5 μL of TaqMan® Gene Expression Assays for the target gene (gene-specific probe and primer sets, product of Applied Biosystems), and 4.5 μL of the above-obtained cDNA solution were added to each sample and stirred. A PCR reaction consisting of heating at 95° C. for 20 seconds, followed by 40 cycles consisting of heating at 95° C. for 3 seconds and annealing and extension at 60° C. for 30 seconds was performed using a real-time PCR device (“Applied Biosystems 7500 Real-Time PCR System”) with SDS v1.4 Software (product of Applied Biosystems). Threshold cycle (Ct) values were calculated using the software.\nThe Assay IDs of the TaqMan® Gene Expression Assays for the target genes used are as follows:\nThe expression level of each gene was determined according to the following formula using the level of ACTB as a reference standard.\n(Relative mRNA expression level)=2̂−{(Ct value of the target gene)−(Ct value of ACTB)} […]"}
{"compound": "COc1ccc(CC2SC(=S)NC2=O)c2c1N(CCC(C)C)C(=O)CC2", "note": "(stereo not shown) [Test Compound 965]", "values": [{"measurement": "IL-8 relative mRNA expression level, Mean", "result": 61.2, "unit": "%"}]}
